Reference: patent publication US20260098061A1, “EPHA2-BINDING PENDING PEPTIDE AND COMPOSITION COMPRISING SAME” (PeptiDream Inc., priority 2022, published 2026)
Numbered stars: 1 amine (or outer) side, 2 acyl side, 3 side chain; on linkers, the order of the positions; unused ones are H or OH. Bridge positions count the residues as written; N and C are the ends. Square brackets hold non-standard residues; d marks the D form. Side chains are listed from the residue outwards. Peptide text beside a SMILES is read from it. * marks the point of attachment. Trp(1-Me,7-Cl) = Cn1cc(C[C@H](N)C(=O)O)c2cccc(Cl)c21; Ala(2-NH2-4-pyridyl) = Nc1cc(C[C@H](N)C(=O)O)ccn1; dPhe(3-CONH2) = NC(=O)c1cccc(C[C@@H](N)C(=O)O)c1; Piperazinyl(4-CH2COOH) = O=C(O)CN1CCN(*)CC1; Trp(1-Me) = Cn1cc(C[C@H](N)C(=O)O)c2ccccc21; NMehCit = CN[C@@H](CCCCNC(N)=O)C(=O)O; NMe3Pal = CN[C@@H](Cc1cccnc1)C(=O)O; NMeF = CN[C@@H](Cc1ccccc1)C(=O)O; Gly(cBu) = N[C@H](C(=O)O)C1CCC1; NMeE = CN[C@@H](CCC(=O)O)C(=O)O; Aad = N[C@@H](CCCC(=O)O)C(=O)O; CO = O=C([*:1])[*:2]

Target: T1, Recombinant Human EphA2 Fc Protein (Homo sapiens, UniProt P29317)
T1 construct: purchased Elabscience
Test: SPR interaction analysis (Biacore T200), kinetics of peptides against EphA2
Assay type: binding
Conditions: Recombinant Human EphA2 Fc Protein captured by Human Antibody Capture kit; single-cycle kinetics; 25° C.; HBS-P+ buffer with 1% DMSO
Method: Example 14 Interaction Analysis by SPR was Performed Using Biacore (Cytiva)
SPR assay was performed using Biacore T200 (Cytiva).
The HBS-P+ buffer (10 mM HEPES (pH7.4), 150 mM NaCl, 0.05% (v/V) Surfactant P20) containing 1% DMSO was used as running buffer. Recombinant Human EphA2 Fc Protein (Fc tag, Elabscience) was captured by Human Antibody Capture kit (Cytiva). Peptide samples in DMSO were diluted with running buffer, and prepared five serial dilutions. Using these serial dilutions, kinetics of peptides against EphA2 was measured at a flow rate of 30 mL/min at 25° C. The method adopted for sample measurement was a single-cycle kinetics method. The analysis was conducted using the evaluation software 3.0 provided with Biacore T200. Kinetics fitting was done on the difference data obtained by subtracting the baseline data from sample measurement data. KD values were calculated based on the association rate constant (ka) and dissociation rate constant (kd).

| SMILES | Kd |
| --- | --- |
| C[C@@H]1SCC(=O)N[C@H](Cc2cccc(C(N)=O)c2)C(=O)N(C)[C@@H](Cc2cccnc2)C(=O)N[C@@H](CC(N)=O)C(=O)N[C@@H](C2CCC2)C(=O)N[C@@H](CCCC(N)=O)C(=O)N(C)[C@@H](CCC(=O)O)C(=O)N[C@@H](Cc2cn(C)c3c(Cl)cccc23)C(=O)N[C@@H](CCCCNC(=O)N2CCN(CC(=O)O)CC2)C(=O)N[C@@H](Cc2cn(C)c3ccccc23)C(=O)N[C@@H]1C(N)=O [PDC_EphA2-00026610, df3CON-Me3Py-N-Cbg-Hgn-MeE-W1Me7Cl-KCOpipzaa-W1Me-C3SMe-NH2] | 1 to 10 nM |
| C[C@H]1SCC(=O)N[C@H](Cc2cccc(C(N)=O)c2)C(=O)N(C)[C@@H](Cc2cccnc2)C(=O)N[C@@H](CC(N)=O)C(=O)N[C@@H](C2CCC2)C(=O)N[C@@H](CCCC(N)=O)C(=O)N(C)[C@@H](CCC(=O)O)C(=O)N[C@@H](Cc2cn(C)c3c(Cl)cccc23)C(=O)N[C@@H](CCCCNC(=O)N2CCN(CC(=O)O)CC2)C(=O)N[C@@H](Cc2cn(C)c3ccccc23)C(=O)N[C@@H]1C(N)=O [PDC_EphA2-00026611, df3CON-Me3Py-N-Cbg-Hgn-MeE-W1Me7Cl-KCOpipzaa-W1Me-C3RMe-NH2] | < 1 nM |
| CC(C)C[C@@H]1NC(=O)[C@H](Cc2ccnc(N)c2)NC(=O)[C@H](Cc2ccccc2)NC(=O)CSC[C@@H](C(N)=O)NC(=O)[C@H](Cc2cn(C)c3ccccc23)NC(=O)[C@H](Cc2ccccc2)N(C)C(=O)[C@H](Cc2cn(C)c3ccccc23)NC(=O)[C@H](CCCCNC(N)=O)N(C)C1=O [PDC_EphA2-00026481, F-4Py2NH2-L-MeHcit-W1Me-MeF-W1Me-C-NH2] ({CH2CO}-F[Ala(2-NH2-4-pyridyl)]L[NMehCit][Trp(1-Me)][NMeF][Trp(1-Me)]C-NH2; thioether N-8) | 100 to 400 nM |

Further lines, results first:

| Kd | SMILES |
| --- | --- |
| < 1 nM | CC(C)C[C@@H]1NC(=O)[C@H](CC(N)=O)NC(=O)[C@H](Cc2cccnc2)N(C)C(=O)[C@@H](C)NC(=O)CSC[C@@H](C(N)=O)NC(=O)[C@H](CC(=O)N(C)C)NC(=O)[C@H]([C@@H](C)O)NC(=O)[C@H](Cc2cn(C)c3ccccc23)NC(=O)[C@H](CCCCNC(=O)N2CCN(CC(=O)O)CC2)NC(=O)[C@H](Cc2cn(C)c3ccccc23)NC(=O)[C@H](CCC(=O)O)N(C)C(=O)[C@H](CCCC(N)=O)NC1=O [PDC_EphA2-00018534, da-Me3Py-N-L-Hgn-MeE-W1Me-KCOpipzaa-W1Me-T-Ndm-C-NH2] ({CH2CO}-[dA][NMe3Pal]NL[Aad](NH2)[NMeE][Trp(1-Me)]K([CO-Piperazinyl(4-CH2COOH)])[Trp(1-Me)]TD(NMe2)C-NH2; thioether N-12) |
| < 1 nM | C[C@@H](O)[C@@H]1NC(=O)[C@H](Cc2cn(C)c3ccccc23)NC(=O)[C@H](CCCCNC(=O)N2CCN(CC(=O)O)CC2)NC(=O)[C@H](Cc2cn(C)c3c(Cl)cccc23)NC(=O)[C@H](Cc2ccccc2)N(C)C(=O)[C@H](CCCC(N)=O)NC(=O)[C@H](C2CCC2)NC(=O)[C@H](CC(N)=O)NC(=O)[C@H](Cc2ccccc2)N(C)C(=O)[C@@H](Cc2cccc(C(N)=O)c2)NC(=O)CSC[C@@H](C(N)=O)NC(=O)[C@H](CCCC(N)=O)NC1=O [PDC_EphA2-00019432, df3CON-MeF-N-Cbg-Hgn-MeF-W1Me7Cl-KCOpipzaa-W1Me-T-Hgn-C-NH2] ({CH2CO}-[dPhe(3-CONH2)][NMeF]N[Gly(cBu)][Aad](NH2)[NMeF][Trp(1-Me,7-Cl)]K([CO-Piperazinyl(4-CH2COOH)])[Trp(1-Me)]T[Aad](NH2)C-NH2; thioether N-12) |
| < 1 nM | CC(C)C[C@@H]1NC(=O)[C@H](CC(N)=O)NC(=O)[C@H](Cc2cccnc2)N(C)C(=O)[C@@H](C)NC(=O)CSC[C@@H](C(N)=O)NC(=O)[C@H](CCCC(N)=O)NC(=O)[C@H]([C@@H](C)O)NC(=O)[C@H](Cc2cn(C)c3ccccc23)NC(=O)[C@H](CCCCNC(=O)N2CCN(CC(=O)O)CC2)NC(=O)[C@H](Cc2cn(C)c3ccccc23)NC(=O)[C@H](CCC(=O)O)N(C)C(=O)[C@H](CC(=O)N(C)C)NC1=O [PDC_EphA2-00018532, da-Me3Py-N-L-Ndm-MeE-W1Me-KCOpipzaa-W1Me-T-Hgn-C-NH2] ({CH2CO}-[dA][NMe3Pal]NLD(NMe2)[NMeE][Trp(1-Me)]K([CO-Piperazinyl(4-CH2COOH)])[Trp(1-Me)]T[Aad](NH2)C-NH2; thioether N-12) |
